The values that follow come from a melting point compilation (Tetko et al.; mined from patent text by program, amines drawn as free bases though some values may be those of a salt).

By melting point is commonly meant the temperature, or range, at which the solid turns liquid. As to `CON=C1CN(c2c(F)cc3c(=O)c(C(=O)O)cn(C4CC4)c3c2Cl)CC12CNC2`, the melting point is 220 to 221 °C.

As for `COc1cccc2c1C(=O)N(CC(=O)N1c3ccccc3N(Cc3ccccc3)C(=O)[C@H]3CCC[C@H]31)C2=O` (relative stereo), the melting point is 247 to 248 °C.

Compound `CC(=O)c1ccc2c(c1)CCCN2C(=O)c1ccc(-c2ccc(Cl)cc2)cc1` displayed a melting point of 149 to 151 °C.

On to `ClC(Cl)=CCOc1cc(Cl)c(OCC=Cc2ccccc2)c(Cl)c1`, for which the melting point was 51.3 °C.

As to `O=C(O)CCc1cc(-c2ccccc2)nn1Cc1ccc(Cl)cc1Cl`, the melting point fell in the range of 160 to 161 °C.

With `NC(=O)c1nc(-c2ccc3nc[nH]c3c2)nc2c1[nH]c(=O)n2-c1ccccc1F`, the melting point came out at 278 °C.

With `Cc1cccc2sc(S)nc12`, the melting point lay in the range of 161 to 173 °C.

As for `COc1cc2c(cc1OC)-c1c(C)nc(Nc3c(C)cccc3C)n1CC2`, the melting point is 234 to 236 °C.

As to `O=C(CCCl)N1CCc2ccc([N+](=O)[O-])cc21`, the melting point was 127 to 128 °C.

As for `O=S(CSc1ccc(Cl)cc1)c1ccccc1` (stereo not given), the melting point was 70 to 71 °C.

`CC(=O)NC(Cc1csc2ccccc12)C(=O)CCc1cc(C(F)(F)F)cc(C(F)(F)F)c1` (stereo not given) had a melting point of 83 to 84 °C.

Take `CC1COCc2nc3cnc4cc(Br)ccc4c3n21` (stereo not given): the melting point was 207 to 209 °C.

`COc1cc(-c2oc3ccccc3c(=O)c2OCC(O)CN2CCN(c3ccccc3)CC2)cc(OC)c1OC` (stereo not given) showed a melting point of 170 to 171 °C.

Consider `CC(=O)Nc1c(C(=O)c2cccs2)[nH]c2cc(Cl)ccc12`, for which the melting point lay in the range of 228 to 231 °C.

Compound `CC(=O)SCC(Cc1cccnc1)C(=O)Nc1cccc(C(=O)O)c1` (stereo not given) had a melting point greater than 200 °C.

Take `CC1(C)CCC(C)(C)c2cc(C#Cc3ccc(C=O)cc3)ccc21`: the melting point was found to be 130 °C.

With `Cn1c(=O)n(Cc2ccccc2)c(=O)c2cc(C(=O)NCc3ccc4c(c3)OCO4)ccc21`, the melting point was determined as 215 °C.

In the case of `c1ccc(-n2c3ccccc3c3ccccc32)cc1`, the melting point was 96 to 97 °C.

`CC(C)(C)c1ccc(COc2ccc(S(=O)(=O)NC[C@@H](C(=O)NO)N3CCOCC3)cc2)cc1` registered a melting point of 137 °C.

`COCCNC(=O)COc1ccc(C(=O)CN2CCN(c3ccncc3)CC2)cc1` came in with a melting point of 142 to 145 °C.

`CCC(CN1CCCC1)C(=O)c1cc(-c2ccccc2)no1` (stereo not given) showed a melting point of 68 to 69 °C.

Compound `CC(C)N1C(=O)N(c2ccc(C#N)c(C(F)(F)F)c2)C(=O)C1(CO)CO` gave a melting point of 172 to 173 °C.

In turn, `Cc1ccccc1S(=O)(=O)NC(=O)Nc1cc(C)c(S(=O)(=O)C[N+](=O)[O-])c(C)c1` gave a melting point of 194 to 196 °C.

In turn, `O=S(=O)(Nc1cccc(Br)c1)c1cc(S(=O)(=O)Nc2cccc(Br)c2)c2cc(O)ccc2c1` gave a melting point of 198 to 200 °C.

For the compound `Cc1ccc(Cl)cc1N1C(=O)CON(C)C1=S`, the melting point lay in the range of 100 to 102 °C.

As to `CCCc1c(OCCCCCc2ccc(O)c(O)c2)ccc(C(C)=O)c1O`, the melting point was 126 to 127 °C.

Take `C(=Nc1onc2c1CCC2)c1ccccc1`: the melting point was determined as 166 °C.

Compound `O=C(O)CCCCCCCCc1nc(-c2ccccc2)c(-c2ccccc2)o1` had a melting point of 83 to 85 °C.

Compound `CC(C)(C)C(=O)C(O)C(OS(=O)(=O)C(F)(F)F)C1OC(O)(C(=O)C(C)(C)C)C(O)(C(=O)C(C)(C)C)C1(O)C(=O)C(C)(C)C` (stereo not given) displayed a melting point of 109 to 112 °C.

Consider `Cc1cccc2c1C(=O)N(C1(C(=O)Nc3ccc(Cl)cc3)CCCCC1)C2=O`, for which the melting point lay in the range of 208 to 209 °C.

`COc1ccc(N)c(C(=O)O)c1OC`: the melting point was 71 to 72 °C.

`O=C(O)[C@H](Cc1cccc(OCC(F)(F)C(F)F)c1)[C@@H](O)c1ccc(F)cc1` (racemic) gave a melting point of 114 to 115 °C.

Take `CN(C)c1nc(NCc2ccc(NC(=O)c3ccc(F)cc3)cc2)c2ccc(C#N)cc2n1`: the melting point came out at 150 °C.

Turning to `COC(=O)c1ccc2occ(-c3cccc(OC(F)(F)F)c3)c2c1`, the melting point fell in the range of 93 to 94 °C.

Compound `O=C1CCN(Cc2ccccn2)CC1C(c1ccccc1)c1ccccc1` (stereo not given) had a melting point of 100 °C.

Compound `CC1OC(=O)C(c2cccc(C(F)(F)F)c2)=C1O` (stereo not given) yielded a melting point of 175 °C.

`CC(C)c1ccc(S(=O)(=O)N2CCCC2c2ccc(F)cc2)cc1` (racemic) showed a melting point of 77 °C.

The compound `CC(=O)N1C(=O)NC(=O)C12c1ccccc1N(C)C(=O)N2C` (stereo not given) returned a melting point of 261 to 263 °C.

Consider `CC(CN1CCCC1)N1c2ccccc2Sc2ccc(C(=O)NCc3c(Cl)cccc3Cl)cc21` (racemic), for which the melting point turned out to be 138 °C.

Regarding `CCCCCCCCCCC[C@H](C[C@H](O)[C@H](CCCCCC)C(=O)O)OCc1ccccc1`, the melting point was in the range of 57 to 60 °C.

The compound `CCOC(=O)c1ccc(-c2ccc(Cl)cc2)[nH]1` gave a melting point of 148 °C.

For the compound `COC=C(C(=O)OC)c1ccccc1CON=C(C)c1noc2ccccc12`, the melting point lay in the range of 97 to 98 °C.

`CCN1C(=O)OC(C)(C)c2cc(-c3cc(F)cc(C#N)c3)ccc21` yielded a melting point of 154 to 155 °C.

The compound `CC(C)Nc1ccc(-c2ncc(C(F)(F)F)cc2Cl)cc1N` yielded a melting point of 116 to 117 °C.

For `CN1CCN(S(=O)(=O)c2cc(NC(=O)c3cnn4c(C(F)F)cc(-c5ccc(C(F)(F)F)cc5)nc34)c(Cl)s2)CC1`, the melting point came to 293 °C.

`CSc1ccc(C(=O)NCc2ccc3c(c2)C(=O)N(C2(C)CCC(=O)NC2=O)C3=O)cc1` (stereo not given) registered a melting point of 218 to 220 °C.

`O=C(Nc1n[nH]c2cc(Cl)ccc12)c1cc(Cl)cc(Cl)c1` came in with a melting point of 240 °C.

`CCCC(C)(C)c1nc(CC(=O)O)c(C)o1` gave a melting point of 97 to 98 °C.

`CCCCCCCCCCCCCCCC(=O)OC(CCCCCCCCCCCCCC)C(=O)O` (stereo not given) returned a melting point of 55 to 56 °C.

As for `N#CCCNC(=O)c1cccc(-c2ccc3c(c2)N(c2cc(Cl)ccc2Cl)CC3)c1`, the melting point is 189 to 190 °C.

The compound `CCCCCCCCCCCCc1ccc(NC)c([N+](=O)[O-])c1` yielded a melting point of 54 °C.

As to `NC(=O)CN1C(=O)C[C@@H]2CCCCCC[C@@H]21` (relative stereo), the melting point lay within 110 to 112 °C.

In turn, `CC(C)Oc1ccccc1OCCCN1CCC(C(O)(c2ccc(F)cc2)c2ccc(F)cc2)CC1` displayed a melting point of 75 to 79 °C.

Take `CN(Cc1cc2c3c(c1)c(=O)c(C(=O)NCc1ccc(F)cc1)cn3CC(=O)N2C)C[C@@H](O)c1cccs1`: the melting point lay within 113 to 115 °C.

Consider `NC(=O)[C@@H]1[C@H](Nc2ccnc3[nH]c(-c4ccc(CN5CCOCC5)cc4)nc23)[C@H]2C=C[C@@H]1C2`, for which the melting point lay in the range of 240 to 244 °C.

For `CCNC(=O)c1c(C(F)(F)F)cccc1[Si](C)(C)C`, the melting point fell in the range of 134 to 135 °C.

Compound `Cc1cc(C)c2nc(COc3ccc(CC4SC(=O)N(C(c5ccccc5)(c5ccccc5)c5ccccc5)C4=O)cc3)n(C)c2n1` (stereo not given) had a melting point of 96 to 99 °C.

In the case of `C#CCc1c(C)nc2c(OCc3ccccc3S(C)(=O)=O)cccn12`, the melting point lay in the range of 179 to 180 °C.

The compound `N#CCOc1ccc(Cl)c(Cl)c1` registered a melting point of 61 to 62 °C.

`O=C(c1ccc(O)cc1)c1ccon1`: the melting point fell in the range of 125 to 127 °C.
